The values that follow come from paper PMC3254698 (Bioorganic & medicinal chemistry letters, 2008).

By IC50 is commonly meant the concentration that inhibits the measured activity by half. A lower IC50 goes with greater potency.

This experiment concerns the target presenilin-1 (Homo sapiens, UniProt P49768). Type of experiment: biochemical.

Turning to `CC(C)C[C@H](NC(=O)[C@H](Cc1ccccc1)C[C@@H](O)[C@H](Cc1ccc(C(=O)c2ccccc2)cc1)NC(=O)OC(C)(C)C)C(=O)N[C@@H](Cc1ccccc1)C(=O)NCCCCCNC(=O)CCCC[C@@H]1SC[C@@H]2NC(=O)N[C@@H]21` [compound 3], the IC50 was 0.6 nM.
